Tests used:
CREB = CREB phosphorylation by Western blot; format: cell-based; conditions: H89 10 μM pre-treatment or oleoyl-LPI in control cells
Description: When cell cultures reached 80-90%, media were removed and cells were washed twice with 1×PBS. The cells were lysed in 150 μl (for one well of a 6 well plate) of Triton X-100 lysis buffer, containing phosphatase inhibitor cocktail (1:1000) (Sigma Aldrich, UK) and protease inhibitor (1:1000, Sigma Aldrich, UK). Cells were detached with scrapers and lysate were collected and centrifuged at 10,000 rpm, 4° C. for 5 minutes. The supernatant was then transferred to a 1.5 ml microcentrifuge tube and used for protein quantification. Cell lysates were stored at −20° C. for longer storage. All lysates were prepared on ice.
Non-specific antibody binding was prevented by incubating the nitrocellulose membrane in 5% milk in PBS-0.05% Tween-20 (v/v) for 30 minutes on a rotating plate. The membrane was then washed in PBS-0.05% Tween-20 (v/v) and then incubated with the primary antibody diluted in PBS-0.05% Tween-20 (v/v) on a rotating plate overnight at 4° C. After 24 hours, the membrane was washed 5× for 5 minutes with PBS-0.05% Tween-20 (v/v), and then incubated on a rotating plate with the appropriate secondary antibody for 1 hour at room temperature. […]

[1] = tested on: colonic cells of the GI tract obtained from guinea pig; experiment: Ex vivo GLP-1 biosynthesis and secretion, guinea pig GI tract cells; format: cell-based
Outline: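 Colonic/rectal crypts and cells from a pregnant guinea pig, collagenase-P digested and cultured one day on Matrigel, then exposed 2 h at 37 °C in serum-free DMEM with KR-62436 10 μg/ml and compound (20 μM, quadruplicate; EC50 also determined). Active GLP-1 in supernatant measured by ELISA, normalised to DMSO control.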

pancreatic islets = experiment: Glucose-stimulated insulin secretion (GSIS) of isolated islets; format: cell-based, mice; conditions: 16.7 mM glucose
Description: After euthanasia, pancreatic islets were isolated as described in detail elsewhere (Carter, J. D., S. B. Dula, K. L. Corbin, R. P. Wu and C. S. Nunemaker (2009), Biological Procedures Online, Vol 11(1), pp:3-31). Following purification, islets were rested overnight at 37° C. in a humidified atmosphere of 95% air and 5% CO2 in RPMI 1640 medium supplemented with 10% FBS, 100 units/ml penicillin and 0.1 mg/ml streptomycin.
Glucose-stimulated insulin secretion (GSIS) was performed on isolated mouse islets after resting them overnight in supplemented RPMI 1640 medium at 37° C. in a humidified atmosphere of 95% air and 5% CO2. Briefly, islets were hand-picked and placed in groups of five into individual micro centrifuge tubes. Islets were washed twice, then incubated with Krebs buffer (KRB, 115 mM NaCl; 4.7 mM KCl; 1.28 mM CaCl2·2H2O; 1.2 mM KH2PO4; 1.2 mM MgSO4·7H2O; 10 mM NaHCO3; 10 mM HEPES; 0.5% BSA; pH 7.4) supplemented with 1.1 mM glucose for 40 minutes at 37° C. Supernatants were discarded, then islets were incubated with KRB supplemented with 16.7 mM glucose for 20 minutes. Supernatants were collected for insulin determination using Mouse Ultrasensitive Insulin ELISA (Mercodia, Uppsala, Sweden) according to manufacturer instructions and data was reported as picograms of Insulin per islet in 20 minutes (pg/islet/20 min).

## oleoyl-lysophosphatidylinositol [oleoyl-LPI]
CREB
  phosphorylation of CREB: able to stimulate CREB phosphorylation
[1]; 20 μM, 2 hours, standardized against DMSO control
  GLP-1 biosynthesis and secretion ex vivo: stimulated biosynthesis and secretion
[1]; ex vivo incubation 2 hours, quadruplicates
  EC50: 32.7 µM
Pancreatic islets; GPR119−/− islets
  insulin secretion response to stimulation: completely lost the ability to respond
Pancreatic islets; wild type islets, oleoyl-LPI 20 μM, 20 minutes
  enhancement of acute insulin secretion: approximately 50%
